According to US10392404B2, “Compounds and compositions as kinase inhibitors” (NOVARTIS AG, priority 2014, dated 2019):

Assays:
b-Raf (V600E) = target: T1, b-Raf (V600E) (Homo sapiens, UniProt P15056, V600E); assay: In vitro Raf activity determination (Alpha Screen, biotinylated kinase-dead MEK1 substrate), B-Raf; format: biochemical; details: b-Raf (V600E) approximately 4 pM; ATP 10 μM; pre-incubation 60 minutes; reaction 3 hours at room temperature
T1 construct: made in house
Outline: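 Activated b-Raf(V600E) (~4 pM) pre-incubated 60 min with compound and biotinylated kinase-dead (K97R) MEK1 (~10 nM), then reacted 3 h at room temperature with 10 μM ATP in 50 mM Tris pH 7.5, 15 mM MgCl2, 0.01% BSA, 1 mM DTT. Phospho-MEK detected by AlphaScreen; IC50 by non-linear regression.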

C-RAF = target: T2, C-RAF (Homo sapiens, UniProt P04049, Y340E/Y341E); assay: In vitro Raf activity determination (Alpha Screen, biotinylated kinase-dead MEK1 substrate), C-Raf; format: biochemical; details: c-Raf approximately 4 nM; ATP 1 μM; pre-incubation 60 minutes; reaction 1 hour at room temperature
T2 construct: His tag (implied by nickel chromatography) (cleaved yes); StrepII tag (cleaved yes); made in house; host or cells: Sf9 insect cells (baculovirus), CRAF and h14-3-3 zeta co-expressed; MEK1 substrate from E. coli
Outline: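 Full-length C-Raf carrying Y340E/Y341E, co-expressed with 14-3-3ζ in Sf9 cells, at approximately 4 nM, with approximately 10 nM biotinylated kinase-dead MEK1 (K97R) and 1 μM ATP, pH 7.5. Compound preincubated 60 min, reaction 1 hour at room temperature. Phospho-MEK read by AlphaScreen; IC50 by non-linear regression.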

T1 sequence (P15056 whole entry V600E): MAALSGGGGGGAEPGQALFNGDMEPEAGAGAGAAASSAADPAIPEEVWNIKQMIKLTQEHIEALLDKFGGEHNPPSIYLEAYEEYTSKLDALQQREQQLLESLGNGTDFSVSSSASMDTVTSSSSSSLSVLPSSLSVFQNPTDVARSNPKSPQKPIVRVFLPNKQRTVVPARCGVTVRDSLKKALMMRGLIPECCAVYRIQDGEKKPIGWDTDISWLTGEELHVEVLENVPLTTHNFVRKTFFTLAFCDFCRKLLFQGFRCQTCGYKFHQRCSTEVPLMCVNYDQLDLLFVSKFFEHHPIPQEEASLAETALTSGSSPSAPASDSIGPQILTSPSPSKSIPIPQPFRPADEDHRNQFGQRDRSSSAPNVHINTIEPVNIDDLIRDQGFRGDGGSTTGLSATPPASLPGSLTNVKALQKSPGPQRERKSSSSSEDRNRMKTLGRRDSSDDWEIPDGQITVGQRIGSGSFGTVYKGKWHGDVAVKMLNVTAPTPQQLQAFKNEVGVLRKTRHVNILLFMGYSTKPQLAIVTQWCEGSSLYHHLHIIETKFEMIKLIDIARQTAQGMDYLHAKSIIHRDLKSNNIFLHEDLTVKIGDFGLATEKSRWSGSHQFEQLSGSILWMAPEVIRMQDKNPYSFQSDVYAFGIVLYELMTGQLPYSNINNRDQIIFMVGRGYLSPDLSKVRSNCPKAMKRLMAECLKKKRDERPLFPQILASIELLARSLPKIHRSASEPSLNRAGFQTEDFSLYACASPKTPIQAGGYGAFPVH
T2 sequence (P04049 whole entry Y340E/Y341E): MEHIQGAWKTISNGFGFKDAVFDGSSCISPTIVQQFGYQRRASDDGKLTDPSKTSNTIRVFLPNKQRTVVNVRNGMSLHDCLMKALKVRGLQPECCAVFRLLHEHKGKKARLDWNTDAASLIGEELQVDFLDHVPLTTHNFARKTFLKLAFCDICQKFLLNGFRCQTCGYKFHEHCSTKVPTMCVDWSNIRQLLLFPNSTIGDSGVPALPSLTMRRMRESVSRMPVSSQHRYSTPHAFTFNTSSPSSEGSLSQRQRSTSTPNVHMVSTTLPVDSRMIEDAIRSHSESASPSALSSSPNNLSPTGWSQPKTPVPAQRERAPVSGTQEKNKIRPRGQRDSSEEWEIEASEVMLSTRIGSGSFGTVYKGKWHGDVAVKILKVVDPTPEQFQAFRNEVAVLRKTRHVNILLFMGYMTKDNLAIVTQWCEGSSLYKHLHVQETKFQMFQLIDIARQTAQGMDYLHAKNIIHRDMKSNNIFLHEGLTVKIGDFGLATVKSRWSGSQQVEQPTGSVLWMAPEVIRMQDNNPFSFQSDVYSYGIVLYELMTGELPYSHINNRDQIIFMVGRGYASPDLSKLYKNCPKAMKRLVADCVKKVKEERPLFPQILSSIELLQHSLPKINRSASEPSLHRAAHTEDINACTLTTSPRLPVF
T2 sequence (P63104 whole entry partner): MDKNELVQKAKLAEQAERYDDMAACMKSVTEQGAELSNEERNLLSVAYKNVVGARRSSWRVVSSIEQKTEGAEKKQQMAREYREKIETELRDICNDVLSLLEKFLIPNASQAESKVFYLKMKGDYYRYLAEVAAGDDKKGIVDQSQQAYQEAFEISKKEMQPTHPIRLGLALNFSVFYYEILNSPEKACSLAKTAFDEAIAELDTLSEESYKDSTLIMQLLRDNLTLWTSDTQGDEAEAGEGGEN

## Cc1ccc(NC(=O)c2cc(C(C)(C)N)cc(C(F)(F)F)c2)cc1-c1cnc(N2CC(C)(O)C2)c(C#N)c1 [Example 248, 3-(2-aminopropan-2-yl)-N-(3-(5-cyano-6-(3-hydroxy-3-methylazetidin-1-yl)pyridin-3-yl)-4-methylphenyl)-5-(trifluoromethyl) benzamide]
b-Raf (V600E)
  IC50: 10.6 nM
C-RAF
  IC50: 2.02 nM

## Cc1ccc(NC(=O)c2cc(C(C)(C)N)cc(C(F)(F)F)c2)cc1-c1cnc(N2CCOCC2)c(C#N)c1 [Example 249, 3-(2-aminopropan-2-yl)-N-(3-(5-cyano-6-morpholinopyridin-3-yl)-4-methylphenyl)-5-(trifluoromethyl) benzamide]
b-Raf (V600E)
  IC50: 2.54 nM
C-RAF
  IC50: 0.653 nM

## CCn1cc(C(=O)Nc2ccc(C)c(-c3cnc(N(C)C)c(C#N)c3)c2)cc(C(F)(F)F)c1=O [Example 250, N-(3-(5-cyano-6-(dimethylamino)pyridin-3-yl)-4-methylphenyl)-1-ethyl-6-oxo-5-(trifluoromethyl)-1,6-dihydropyridine-3-carboxamide]
b-Raf (V600E)
  IC50: 1.96 nM
C-RAF
  IC50: 0.401 nM

## CCn1cc(C(=O)Nc2ccc(C)c(-c3cnc(N(C)C)c(C#N)c3)c2)c(C)n1 [Example 251, N-(3-(5-cyano-6-(dimethylamino)pyridin-3-yl)-4-methylphenyl)-1-ethyl-3-methyl-1H-pyrazole-4-carboxamide]
b-Raf (V600E)
  IC50: 59.7 nM
C-RAF
  IC50: 7.28 nM

## Cc1ccc(NC(=O)c2cn(C)nc2C)cc1-c1cnc(N(C)C)c(C#N)c1 [Example 252, N-(3-(5-cyano-6-(dimethylamino)pyridin-3-yl)-4-methylphenyl)-1,3-dimethyl-1H-pyrazole-4-carboxamide]
b-Raf (V600E)
  IC50: 196 nM
C-RAF
  IC50: 17.6 nM

## Cc1ccc(NC(=O)c2cn(C(C)C)nc2C)cc1-c1cnc(N(C)C)c(C#N)c1 [Example 253, N-(3-(5-cyano-6-(dimethylamino)pyridin-3-yl)-4-methylphenyl)-1-isopropyl-3-methyl-1H-pyrazole-4-carboxamide]
b-Raf (V600E)
  IC50: 16.5 nM
C-RAF
  IC50: 2.5 nM

## Cc1cc(C(=O)Nc2ccc(C)c(-c3cnc(N(C)C)c(C#N)c3)c2)n(C)n1 [Example 254, N-(3-(5-cyano-6-(dimethylamino)pyridin-3-yl)-4-methylphenyl)-1,3-dimethyl-1H-pyrazole-5-carboxamide]
b-Raf (V600E)
  IC50: 278 nM
C-RAF
  IC50: 38.4 nM

## Cc1ccc(NC(=O)c2cc(C3CC3)nn2C)cc1-c1cnc(N(C)C)c(C#N)c1 [Example 255, N-(3-(5-cyano-6-(dimethylamino)pyridin-3-yl)-4-methylphenyl)-3-cyclopropyl-1-methyl-1H-pyrazole-5-carboxamide]
b-Raf (V600E)
  IC50: 35.6 nM
C-RAF
  IC50: 4.84 nM

## Cc1ccc(NC(=O)c2ccnc(C(C)(C)O)c2)cc1-c1cnc(N(C)C)c(C#N)c1 [Example 256, N-(3-(5-cyano-6-(dimethylamino)pyrdin-3-yl)-4-methylphenyl)-2-(2-hydroxypropan-2-yl)isonicotinamide]
b-Raf (V600E)
  IC50: 1.52 nM
C-RAF
  IC50: 0.353 nM

## Cc1cc(CC(=O)Nc2ccc(C)c(-c3cnc(N(C)C)c(C#N)c3)c2)on1 [Example 257, N-(3-(5-cyano-6-(dimethylamino)pyridin-3-yl)-4-methylphenyl)-2-(3-methylisoxazol-5-yl)acetamide]
b-Raf (V600E)
  IC50: 12.9 nM
C-RAF
  IC50: 1.36 nM

## Cc1ccc(NC(=O)c2cc(C(C)C)on2)cc1-c1cnc(N(C)C)c(C#N)c1 [Example 258, N-(3-(5-cyano-6-(dimethylamino)pyridin-3-yl)-4-methylphenyl)-5-isopropylisoxazole-3-carboxamide]
b-Raf (V600E)
  IC50: 1.18 nM
C-RAF
  IC50: 0.158 nM

## Cc1ccc(NC(=O)c2cc(C3CC3)on2)cc1-c1cnc(N(C)C)c(C#N)c1 [Example 259, N-(3-(5-cyano-6-(dimethylamino)pyridin-3-yl)-4-methylphenyl)-5-cyclopropylisoxazole-3-carboxamide]
b-Raf (V600E)
  IC50: 3.79 nM
C-RAF
  IC50: 0.435 nM

## Cc1ccc(NC(=O)c2cccc(S(C)(=O)=O)c2)cc1-c1cnc(N(C)C)c(C#N)c1 [Example 260, N-(3-(5-cyano-6-(dimethylamino)pyridin-3-yl)-4-methylphenyl)-3-(methylsulfonyl) benzamide]
b-Raf (V600E)
  IC50: 0.297 nM
C-RAF
  IC50: 0.115 nM

## Cc1ccc(NC(=O)c2ccnc(S(C)(=O)=O)c2)cc1-c1cnc(N(C)C)c(C#N)c1 [Example 261, N-(3-(5-cyano-6-(dimethylamino)pyridin-3-yl)-4-methylphenyl)-2-(methylsulfonyl) isonicotinamide]
b-Raf (V600E)
  IC50: 0.71 nM
C-RAF
  IC50: 0.106 nM

## Cc1ncc(NC(=O)c2cc(C3CC3)on2)cc1-c1cnc(N(C)C)c(C#N)c1 [Example 262, N-(5′-cyano-6′-(dimethylamino)-2-methyl-[3,3′-bipyridin]-5-yl)-5-cyclopropylisoxazole-3-carboxamide]
b-Raf (V600E)
  IC50: 10.9 nM
C-RAF
  IC50: 2.16 nM

## CCn1cc(C(=O)Nc2cnc(C)c(-c3cnc(N(C)C)c(C#N)c3)c2)c(C)n1 [Example 263, N-(5′-cyano-6′-(dimethylamino)-2-methyl-[3,3′-bipyridin]-5-yl)-1-ethyl-3-methyl-1H-pyrazole-4-carboxamide]
b-Raf (V600E)
  IC50: 884 nM
C-RAF
  IC50: 55.3 nM

## Cc1nn(C)cc1C(=O)Nc1cnc(C)c(-c2cnc(N(C)C)c(C#N)c2)c1 [Example 264, N-(5′-cyano-6′-(dimethylamino)-2-methyl-[3,3′-bipyridin]-5-yl)-1,3-dimethyl-1H-pyrazole-4-carboxamide]
b-Raf (V600E)
  IC50: 1970 nM
C-RAF
  IC50: 148 nM

## Cc1ncc(NC(=O)c2cc(C3CC3)nn2C)cc1-c1cnc(N(C)C)c(C#N)c1 [Example 266, N-(5′-cyano-6′-(dimethylamino)-2-methyl-[3,3′-bipyridin]-5-yl)-3-cyclopropyl-1-methyl-1H-pyrazole-5-carboxamide]
b-Raf (V600E)
  IC50: 404 nM
C-RAF
  IC50: 30.8 nM

## Cc1ncc(NC(=O)c2cc(C(F)(F)F)nn2C)cc1-c1cnc(N(C)C)c(C#N)c1 [Example 267, N-(5′-cyano-6′-(dimethylamino)-2-methyl-[3,3′-bipyridin]-5-yl)-1-methyl-3-(trifluoromethyl)-1H-pyrazole-5-carboxamide]
b-Raf (V600E)
  IC50: 1660 nM
C-RAF
  IC50: 196 nM

## Cc1cc(CC(=O)Nc2cnc(C)c(-c3cnc(N(C)C)c(C#N)c3)c2)on1 [Example 268, N-(5′-cyano-6′-(dimethylamino)-2-methyl-[3,3′-bipyridin]-5-yl)-2-(3-methylisoxazol-5-yl)acetamide]
b-Raf (V600E)
  IC50: 94.2 nM
C-RAF
  IC50: 8 nM

## Cc1ncc(NC(=O)c2cc(C(C)C)on2)cc1-c1cnc(N(C)C)c(C#N)c1 [Example 269, N-(5′-cyano-6′-(dimethylamino)-2 methyl-[3,3′-bipyridin]-5-yl)-5-isopropylisoxazole-3-carboxamide]
b-Raf (V600E)
  IC50: 6.15 nM
C-RAF
  IC50: 0.636 nM

## Cc1ncc(NC(=O)c2cccc(S(C)(=O)=O)c2)cc1-c1cnc(N(C)C)c(C#N)c1 [Example 270, N-(5′-cyano-6′-(dimethylamino)-2-methyl-[3,3′-bipyridin]-5-yl)-3-(methylsulfonyl) benzamade]
b-Raf (V600E)
  IC50: 5.41 nM
C-RAF
  IC50: 0.49 nM

## Cc1ncc(NC(=O)c2ccnc(S(C)(=O)=O)c2)cc1-c1cnc(N(C)C)c(C#N)c1 [Example 271, N-(5′-cyano-6′-(dimethylamino)-2-methyl-[3,3′-bipyridin]-5-yl)-2-(methylsulfonyl) isonicotinamide]
b-Raf (V600E)
  IC50: 11.2 nM
C-RAF
  IC50: 1.15 nM

## Cc1ncc(NC(=O)c2ccnc(C(C)(C)O)c2)cc1-c1cnc(N(C)C)c(C#N)c1 [Example 272, N-(5′-cyano-6′-(dimethylamino)-2-methyl-[3,3′-bipyridin]-5-yl)-2-(2-hydroxypropan-2-yl)isonicotinamide]
b-Raf (V600E)
  IC50: 18.4 nM
C-RAF
  IC50: 2.16 nM

## Cc1ccc(NC(=O)c2cc(C(C)(C)N)cc(C(F)(F)F)c2)cc1-c1cnc(-c2cnn(C)c2)c(C#N)c1 [Example 273, 3-(2-aminopropan-2-yl)-N-(3-(5-cyano-6-(1-methyl-1H-pyrazol-4-yl)pyridin-3-yl)-4-methylphenyl)-5-(trifluoromethyl) benzamide]
b-Raf (V600E)
  IC50: 4 nM
C-RAF
  IC50: 1 nM
